# Test system: MDA-MB-231/ATCC
# Experiment: NCI SRB GI50 screen
# Assay type: cell-based
# Settings: Homo sapiens, Breast, 48 hrs exposure, read-out: Growth Inhibition GI50 MDA-MB-231/ATCC
# Experimental: (§1) 2-Anilino nicotinyl linked 2-amino benzothiazole conjugates of formula 9-12 were tested against fifty nine human cancer cell lines derived from nine cancer types (leukemia, non-small cell lung cancer, colon cancer, CNS cancer, melanoma, ovarian cancer, renal cancer, prostate cancer and breast cancer) as per NCI protocol. For each compound, dose response curves for individual cell lines were measured at a minimum of five concentrations at 10 fold dilutions. A protocol of 48 hrs continuous drug exposure was used, and a sulforhodamine B (SRB) protein assay was used to estimate cell viability or growth.
row,Structure (SMILES),GI50 [µM]
1,"COc1cc(Nc2ncccc2C(=O)Nc2nc3ccc(F)cc3s2)cc(OC)c1OC [Compound 11, N3-(6-fluoro-1,3-benzothiazol-2-yl)-2-(3,4,5-trimethoxyanilino)nicotinamide]",4.61

# Test system: EKVX
# Experiment: NCI SRB GI50 screen
# Assay type: cell-based
# Settings: Homo sapiens, Non-small lung, 48 hrs exposure, read-out: Growth Inhibition GI50 EKVX
# Experimental: as §1
row,Structure (SMILES),GI50 [µM]
1,"COc1cc(Nc2ncccc2C(=O)Nc2nc3ccc(F)cc3s2)cc(OC)c1OC [Compound 11, N3-(6-fluoro-1,3-benzothiazol-2-yl)-2-(3,4,5-trimethoxyanilino)nicotinamide]",2.7

# Test system: K-562
# Experiment: NCI SRB GI50 screen
# Assay type: cell-based
# Settings: Homo sapiens, K562; Leukemia, 48 hrs exposure; read-out: Growth Inhibition GI50 K-562
# Experimental: as §1
row,Structure (SMILES),GI50 [µM]
1,"COc1cc(Nc2ncccc2C(=O)Nc2nc3ccc(F)cc3s2)cc(OC)c1OC [Compound 11, N3-(6-fluoro-1,3-benzothiazol-2-yl)-2-(3,4,5-trimethoxyanilino)nicotinamide]",1.68

# Test system: NCI-H226
# Experiment: NCI SRB GI50 screen
# Assay type: cell-based
# Settings: Homo sapiens, Non-small lung, 48 hrs exposure, read-out: Growth Inhibition GI50 NCI-H226
# Experimental: as §1
row,Structure (SMILES),GI50 [µM]
1,"COc1cc(Nc2ncccc2C(=O)Nc2nc3ccc(F)cc3s2)cc(OC)c1OC [Compound 11, N3-(6-fluoro-1,3-benzothiazol-2-yl)-2-(3,4,5-trimethoxyanilino)nicotinamide]",2.95

# Test system: MDA-MB-435
# Experiment: NCI SRB GI50 screen
# Assay type: cell-based
# Settings: Homo sapiens, Melanoma, 48 hrs exposure, read-out: Growth Inhibition GI50 MDA-MB-435
# Experimental: as §1
row,Structure (SMILES),GI50 [µM]
1,"COc1cc(Nc2ncccc2C(=O)Nc2nc3ccc(F)cc3s2)cc(OC)c1OC [Compound 11, N3-(6-fluoro-1,3-benzothiazol-2-yl)-2-(3,4,5-trimethoxyanilino)nicotinamide]",2.87

# Test system: A549/ATCC
# Experiment: NCI SRB GI50 screen
# Assay type: cell-based
# Settings: Homo sapiens, Non-small lung, 48 hrs exposure, read-out: Growth Inhibition GI50 A549/ATCC
# Experimental: as §1
row,Structure (SMILES),GI50 [µM]
1,"COc1cc(Nc2ncccc2C(=O)Nc2nc3ccc(F)cc3s2)cc(OC)c1OC [Compound 11, N3-(6-fluoro-1,3-benzothiazol-2-yl)-2-(3,4,5-trimethoxyanilino)nicotinamide]",3.11

# Test system: HCC-2998
# Experiment: NCI SRB GI50 screen
# Assay type: cell-based
# Settings: Homo sapiens, Colon, 48 hrs exposure, read-out: Growth Inhibition GI50 HCC-2998
# Experimental: as §1
row,Structure (SMILES),GI50 [µM]
1,"COc1cc(Nc2ncccc2C(=O)Nc2nc3ccc(F)cc3s2)cc(OC)c1OC [Compound 11, N3-(6-fluoro-1,3-benzothiazol-2-yl)-2-(3,4,5-trimethoxyanilino)nicotinamide]",2.94

# Test system: PC-3
# Experiment: NCI SRB GI50 screen
# Assay type: cell-based
# Settings: Homo sapiens, Prostate, 48 hrs exposure, read-out: Growth Inhibition GI50 PC-3
# Experimental: as §1
row,Structure (SMILES),GI50 [µM]
1,"COc1cc(Nc2ncccc2C(=O)Nc2nc3ccc(F)cc3s2)cc(OC)c1OC [Compound 11, N3-(6-fluoro-1,3-benzothiazol-2-yl)-2-(3,4,5-trimethoxyanilino)nicotinamide]",2.73

# Test system: UO-31
# Experiment: NCI SRB GI50 screen
# Assay type: cell-based
# Settings: Homo sapiens, Renal, 48 hrs exposure, read-out: Growth Inhibition GI50 UO-31
# Experimental: as §1
row,Structure (SMILES),GI50 [µM]
1,"COc1cc(Nc2ncccc2C(=O)Nc2nc3ccc(F)cc3s2)cc(OC)c1OC [Compound 11, N3-(6-fluoro-1,3-benzothiazol-2-yl)-2-(3,4,5-trimethoxyanilino)nicotinamide]",3.37

# Test system: SNB-75
# Experiment: NCI SRB GI50 screen
# Assay type: cell-based
# Settings: Homo sapiens, CNS, 48 hrs exposure, read-out: Growth Inhibition GI50 SNB-75
# Experimental: as §1
row,Structure (SMILES),GI50 [µM]
1,"COc1cc(Nc2ncccc2C(=O)Nc2nc3ccc(F)cc3s2)cc(OC)c1OC [Compound 11, N3-(6-fluoro-1,3-benzothiazol-2-yl)-2-(3,4,5-trimethoxyanilino)nicotinamide]",4.48

# Test system: OVCAR-8
# Experiment: NCI SRB GI50 screen
# Assay type: cell-based
# Settings: Homo sapiens, Ovarian, 48 hrs exposure, read-out: Growth Inhibition GI50 OVCAR-8
# Experimental: as §1
row,Structure (SMILES),GI50 [µM]
1,"COc1cc(Nc2ncccc2C(=O)Nc2nc3ccc(F)cc3s2)cc(OC)c1OC [Compound 11, N3-(6-fluoro-1,3-benzothiazol-2-yl)-2-(3,4,5-trimethoxyanilino)nicotinamide]",3.62

# Test system: SF-268
# Experiment: NCI SRB GI50 screen
# Assay type: cell-based
# Settings: Homo sapiens, CNS, 48 hrs exposure, read-out: Growth Inhibition GI50 SF-268
# Experimental: as §1
row,Structure (SMILES),GI50 [µM]
1,"COc1cc(Nc2ncccc2C(=O)Nc2nc3ccc(F)cc3s2)cc(OC)c1OC [Compound 11, N3-(6-fluoro-1,3-benzothiazol-2-yl)-2-(3,4,5-trimethoxyanilino)nicotinamide]",6.56

# Test system: OVCAR-4
# Experiment: NCI SRB GI50 screen
# Assay type: cell-based
# Settings: Homo sapiens, Ovarian, 48 hrs exposure, read-out: Growth Inhibition GI50 OVCAR-4
# Experimental: as §1
row,Structure (SMILES),GI50 [µM]
1,"COc1cc(Nc2ncccc2C(=O)Nc2nc3ccc(F)cc3s2)cc(OC)c1OC [Compound 11, N3-(6-fluoro-1,3-benzothiazol-2-yl)-2-(3,4,5-trimethoxyanilino)nicotinamide]",2.73

# Test system: NCI-H522
# Experiment: NCI SRB GI50 screen
# Assay type: cell-based
# Settings: Homo sapiens, Non-small lung, 48 hrs exposure, read-out: Growth Inhibition GI50 NCI-H522
# Experimental: as §1
row,Structure (SMILES),GI50 [µM]
1,"COc1cc(Nc2ncccc2C(=O)Nc2nc3ccc(F)cc3s2)cc(OC)c1OC [Compound 11, N3-(6-fluoro-1,3-benzothiazol-2-yl)-2-(3,4,5-trimethoxyanilino)nicotinamide]",1.55

# Test system: UACC-62
# Experiment: NCI SRB GI50 screen
# Assay type: cell-based
# Settings: Homo sapiens, Melanoma, 48 hrs exposure, read-out: Growth Inhibition GI50 UACC-62
# Experimental: as §1
row,Structure (SMILES),GI50 [µM]
1,"COc1cc(Nc2ncccc2C(=O)Nc2nc3ccc(F)cc3s2)cc(OC)c1OC [Compound 11, N3-(6-fluoro-1,3-benzothiazol-2-yl)-2-(3,4,5-trimethoxyanilino)nicotinamide]",1.71

# Test system: NCI-H460
# Experiment: NCI SRB GI50 screen
# Assay type: cell-based
# Settings: Homo sapiens, Non-small lung, 48 hrs exposure, read-out: Growth Inhibition GI50 NCI-H460
# Experimental: as §1
row,Structure (SMILES),GI50 [µM]
1,"COc1cc(Nc2ncccc2C(=O)Nc2nc3ccc(F)cc3s2)cc(OC)c1OC [Compound 11, N3-(6-fluoro-1,3-benzothiazol-2-yl)-2-(3,4,5-trimethoxyanilino)nicotinamide]",3.3

# Test system: COLO 205
# Experiment: NCI SRB GI50 screen
# Assay type: cell-based
# Settings: Homo sapiens, Colon, 48 hrs exposure, read-out: Growth Inhibition GI50 COLO 205
# Experimental: as §1
row,Structure (SMILES),GI50 [µM]
1,"COc1cc(Nc2ncccc2C(=O)Nc2nc3ccc(F)cc3s2)cc(OC)c1OC [Compound 11, N3-(6-fluoro-1,3-benzothiazol-2-yl)-2-(3,4,5-trimethoxyanilino)nicotinamide]",3.04

# Test system: SF-295
# Experiment: NCI SRB GI50 screen
# Assay type: cell-based
# Settings: Homo sapiens, CNS, 48 hrs exposure, read-out: Growth Inhibition GI50 SF-295
# Experimental: as §1
row,Structure (SMILES),GI50 [µM]
1,"COc1cc(Nc2ncccc2C(=O)Nc2nc3ccc(F)cc3s2)cc(OC)c1OC [Compound 11, N3-(6-fluoro-1,3-benzothiazol-2-yl)-2-(3,4,5-trimethoxyanilino)nicotinamide]",2.55

# Test system: SK-OV-3
# Experiment: NCI SRB GI50 screen
# Assay type: cell-based
# Settings: Homo sapiens, Ovarian, 48 hrs exposure, read-out: Growth Inhibition GI50 SK-OV-3
# Experimental: as §1
row,Structure (SMILES),GI50 [µM]
1,"COc1cc(Nc2ncccc2C(=O)Nc2nc3ccc(F)cc3s2)cc(OC)c1OC [Compound 11, N3-(6-fluoro-1,3-benzothiazol-2-yl)-2-(3,4,5-trimethoxyanilino)nicotinamide]",7.4

# Test system: M14
# Experiment: NCI SRB GI50 screen
# Assay type: cell-based
# Settings: Homo sapiens, Melanoma, 48 hrs exposure, read-out: Growth Inhibition GI50 M14
# Experimental: as §1
row,Structure (SMILES),GI50 [µM]
1,"COc1cc(Nc2ncccc2C(=O)Nc2nc3ccc(F)cc3s2)cc(OC)c1OC [Compound 11, N3-(6-fluoro-1,3-benzothiazol-2-yl)-2-(3,4,5-trimethoxyanilino)nicotinamide]",3.08

# Test system: MDA-MB-468
# Experiment: NCI SRB GI50 screen
# Assay type: cell-based
# Settings: Homo sapiens, Breast, 48 hrs exposure, read-out: Growth Inhibition GI50 MDA-MB-468
# Experimental: as §1
row,Structure (SMILES),GI50 [µM]
1,"COc1cc(Nc2ncccc2C(=O)Nc2nc3ccc(F)cc3s2)cc(OC)c1OC [Compound 11, N3-(6-fluoro-1,3-benzothiazol-2-yl)-2-(3,4,5-trimethoxyanilino)nicotinamide]",1.22

# Test system: HOP-62
# Experiment: NCI SRB GI50 screen
# Assay type: cell-based
# Settings: Homo sapiens, Non-small lung, 48 hrs exposure, read-out: Growth Inhibition GI50 HOP-62
# Experimental: as §1
row,Structure (SMILES),GI50 [µM]
1,"COc1cc(Nc2ncccc2C(=O)Nc2nc3ccc(F)cc3s2)cc(OC)c1OC [Compound 11, N3-(6-fluoro-1,3-benzothiazol-2-yl)-2-(3,4,5-trimethoxyanilino)nicotinamide]",5.78

# Test system: MOLT-4
# Experiment: NCI SRB GI50 screen
# Assay type: cell-based
# Settings: Homo sapiens, Leukemia, 48 hrs exposure, read-out: Growth Inhibition GI50 MOLT-4
# Experimental: as §1
row,Structure (SMILES),GI50 [µM]
1,"COc1cc(Nc2ncccc2C(=O)Nc2nc3ccc(F)cc3s2)cc(OC)c1OC [Compound 11, N3-(6-fluoro-1,3-benzothiazol-2-yl)-2-(3,4,5-trimethoxyanilino)nicotinamide]",2.11

# Test system: HOP-92
# Experiment: NCI SRB GI50 screen
# Assay type: cell-based
# Settings: Homo sapiens, Non-small lung, 48 hrs exposure, read-out: Growth Inhibition GI50 HOP-92
# Experimental: as §1
row,Structure (SMILES),GI50 [µM]
1,"COc1cc(Nc2ncccc2C(=O)Nc2nc3ccc(F)cc3s2)cc(OC)c1OC [Compound 11, N3-(6-fluoro-1,3-benzothiazol-2-yl)-2-(3,4,5-trimethoxyanilino)nicotinamide]",1.48

# Test system: MALME-3M
# Experiment: NCI SRB GI50 screen
# Assay type: cell-based
# Settings: Homo sapiens, read-out: Growth Inhibition GI50 MALME-3M, Melanoma, 48 hrs exposure
# Experimental: as §1
row,Structure (SMILES),GI50 [µM]
1,"COc1cc(Nc2ncccc2C(=O)Nc2nc3ccc(F)cc3s2)cc(OC)c1OC [Compound 11, N3-(6-fluoro-1,3-benzothiazol-2-yl)-2-(3,4,5-trimethoxyanilino)nicotinamide]",3.27

# Test system: T-47D
# Experiment: NCI SRB GI50 screen
# Assay type: cell-based
# Settings: Homo sapiens, T47D; Breast, 48 hrs exposure; read-out: Growth Inhibition GI50 T-47D
# Experimental: as §1
row,Structure (SMILES),GI50 [µM]
1,"COc1cc(Nc2ncccc2C(=O)Nc2nc3ccc(F)cc3s2)cc(OC)c1OC [Compound 11, N3-(6-fluoro-1,3-benzothiazol-2-yl)-2-(3,4,5-trimethoxyanilino)nicotinamide]",2.3

# Test system: U251
# Experiment: NCI SRB GI50 screen
# Assay type: cell-based
# Settings: Homo sapiens, U-251; CNS, 48 hrs exposure; read-out: Growth Inhibition GI50 U251
# Experimental: as §1
row,Structure (SMILES),GI50 [µM]
1,"COc1cc(Nc2ncccc2C(=O)Nc2nc3ccc(F)cc3s2)cc(OC)c1OC [Compound 11, N3-(6-fluoro-1,3-benzothiazol-2-yl)-2-(3,4,5-trimethoxyanilino)nicotinamide]",3.01

# Test system: NCI/ADR-RES
# Experiment: NCI SRB GI50 screen
# Assay type: cell-based
# Settings: Homo sapiens, Ovarian, 48 hrs exposure, read-out: Growth Inhibition GI50 NCI/ADR-RES
# Experimental: as §1
row,Structure (SMILES),GI50 [µM]
1,"COc1cc(Nc2ncccc2C(=O)Nc2nc3ccc(F)cc3s2)cc(OC)c1OC [Compound 11, N3-(6-fluoro-1,3-benzothiazol-2-yl)-2-(3,4,5-trimethoxyanilino)nicotinamide]",2.92

# Test system: MCF7
# Experiment: NCI SRB GI50 screen
# Assay type: cell-based
# Settings: Homo sapiens, Breast, 48 hrs exposure, read-out: Growth Inhibition GI50 MCF7
# Experimental: as §1
row,Structure (SMILES),GI50 [µM]
1,"COc1cc(Nc2ncccc2C(=O)Nc2nc3ccc(F)cc3s2)cc(OC)c1OC [Compound 11, N3-(6-fluoro-1,3-benzothiazol-2-yl)-2-(3,4,5-trimethoxyanilino)nicotinamide]",3.23

# — US9029553B2, “2-anilino nicotinyl linked 2-amino benzothiazole conjugates and process for the preparation thereof” (Council of Scientific & Industrial Research, priority 2011, dated 2015)
